In ChEMBL document CHEMBL5500348, “Novel 6-alkyl-bridged 4-arylalkylpiperazin-1-yl derivatives of azepino[4,3-b]indol-1(2H)-one as potent BChE-selective inhibitors showing protective effects against neurodegenerative insults” (Eur J Med Chem, 2024):
≈ marks a conversion by molar mass, not a printed value. Calls of active or inactive are those of the source. No cut-off for these calls is given here.

How the values were obtained:
Cholinesterase [1] = target: T1, Cholinesterase (Equus caballus, UniProt P81908); test: Inhibition of equine serum BuChE using butyrylthiocholine iodide as substrate preincubated for 20 mins followed by substrate addition and measured after 10 mins by DTNB based Ellman's method
Acetylcholinesterase = Acetylcholinesterase (Electrophorus electricus, UniProt O42275); test: Inhibition of electric eel AChE using acetylthiocholine iodide as substrate preincubated for 20 mins followed by substrate addition and measured after 10 mins by DTNB-reagent based Ellman's method
[2] = target: Acetylcholinesterase (Electrophorus electricus) (UniProt O42275); test: Inhibition of electric eel AChE using acetylthiocholine iodide as substrate at 20 uM preincubated for 20 mins followed by substrate addition and measured after 10 mins by DTNB-reagent based Ellman's method relative to control; details: time 30.0 min
[3] = target: Amyloid-beta precursor protein (Homo sapiens) (UniProt P05067); test: Inhibition of self induced amyloid-beta (1 to 40) (unknown origin) aggregation at 100 uM incubated for 2 hrs by ThT fluorescence based spectrofluorimetric analysis relative to control
Cholinesterase [4] = target: T2, Cholinesterase (Homo sapiens, UniProt P06276); test: Inhibition of human BuChE using butyrylthiocholine iodide as substrate preincubated for 20 mins followed by substrate addition and measured after 10 mins by DTNB based Ellman's method
Cholinesterase [5] = target: T1, Cholinesterase
Description: Binding affinity to equine BChE in phosphate buffer at pH 8 assessed as equilibrium dissociation constant by SPR analysis

SH-SY5Y [6] = test: Protection against NMDA-induced cytotoxicity in human SH-SY5Y cells assessed as increase in cell viability at 5 to 20 uM incubated for 24 hrs by MTT assay; assay type: functional, cell-based; details: dose 5-20 µM
serum albumin [7] = target: T3, serum albumin (Homo sapiens, UniProt P02768); test: Binding affinity to human serum albumin assessed as dissociation rate constant (Koff) by SPR analysis; assay type: ADME; details: read-out: K
[8] = Aqueous solubility of compound in phosphate buffered solution at pH 7.4 incubated for 1 hr under shaking condition by HPLC analysis; assay type: physicochemical
[9] = target: Acetylcholinesterase (Homo sapiens) (UniProt P22303); test: Inhibition of human AChE using acetylthiocholine iodide as substrate at 20 uM preincubated for 20 mins followed by substrate addition and measured after 10 mins by DTNB-reagent based Ellman's method relative to control; details: time 30.0 min
[10] = Antioxidant activity assessed as ROS scavenging activity relative to control; assay type: functional
SH-SY5Y [11] = test: Protection against NMDA-induced cytotoxicity in human SH-SY5Y cells assessed as increase in cell viability at 1 uM incubated for 24 hrs by MTT assay; assay type: functional, cell-based
[12] = target: Cholinesterase (Equus caballus) (UniProt P81908); test: Mixed-type inhibition of equine serum BChE using varying concentrations of butyrylthiocholine iodide as substrate assessed as change in Km and Vmax at 0.05 to 0.5 uM by Lineweaver-Burk plot analysis; details: dose 0.05-0.5 µM
[13] = Cytotoxicity against human SH-SY5Y cells assessed as reduction in cell viability incubated for 24 hrs by MTT assay; assay type: toxicity, cell-based
equine serum BuChE = test: Selectivity ratio of IC50 for cytotoxicity against human SH-SY5Y cells to IC50 for inhibition of equine serum BuChE using butyrylthiocholine iodide as substrate; assay type: toxicity, cell-based; details: probe butyrylthiocholine iodide, read-out: Ratio IC50
SH-SY5Y [14] = test: Cytoprotective activity against H2O2-induced oxidative stress in human SH-SY5Y cells assessed as increase in cell viability at 20 uM incubated for 24 hrs by MTT assay; assay type: functional, cell-based
serum albumin [15] = target: T3, serum albumin; test: Binding affinity to human serum albumin assessed as residence time by SPR analysis; assay type: ADME
Albumin = Albumin (Homo sapiens, UniProt P02768); test: Binding affinity to human serum albumin assessed as equilibrium dissociation constant by SPR analysis; assay type: ADME
Cholinesterase [16] = target: T1, Cholinesterase; test: Mixed-type inhibition of equine serum BChE using varying concentrations of butyrylthiocholine iodide as substrate assessed as inhibition constant by Lineweaver-Burk plot analysis
[17] = target: Amyloid-beta precursor protein (Homo sapiens) (UniProt P05067); test: Inhibition of amyloid beta (unknown origin) aggregation at 100 uM relative to control
[18] = target: Acetylcholinesterase (Homo sapiens) (UniProt P22303); test: Inhibition of AChE (unknown origin) at 10 uM relative to control
Cholinesterase [19] = target: T2, Cholinesterase; test: Inhibition of BChE (unknown origin) at 10 uM relative to control
[20] = target: Cholinesterase (Equus caballus) (UniProt P81908); test: Inhibition of equine serum BuChE using butyrylthiocholine iodide as substrate at 20 uM preincubated for 20 mins followed by substrate addition and measured after 10 mins by DTNB based Ellman's method relative to control; details: time 30.0 min
SH-SY5Y [21] = test: Cytoprotective activity against H2O2-induced oxidative stress in human SH-SY5Y cells assessed as increase in cell viability at 100 uM incubated for 24 hrs by MTT assay; assay type: functional, cell-based
SH-SY5Y [22] = test: Cytoprotective activity against H2O2-induced oxidative stress in human SH-SY5Y cells assessed as increase in cell viability incubated for 24 hrs by MTT assay; assay type: functional, cell-based

Sequence of Amyloid-beta precursor protein (Homo sapiens) (P05067 whole entry): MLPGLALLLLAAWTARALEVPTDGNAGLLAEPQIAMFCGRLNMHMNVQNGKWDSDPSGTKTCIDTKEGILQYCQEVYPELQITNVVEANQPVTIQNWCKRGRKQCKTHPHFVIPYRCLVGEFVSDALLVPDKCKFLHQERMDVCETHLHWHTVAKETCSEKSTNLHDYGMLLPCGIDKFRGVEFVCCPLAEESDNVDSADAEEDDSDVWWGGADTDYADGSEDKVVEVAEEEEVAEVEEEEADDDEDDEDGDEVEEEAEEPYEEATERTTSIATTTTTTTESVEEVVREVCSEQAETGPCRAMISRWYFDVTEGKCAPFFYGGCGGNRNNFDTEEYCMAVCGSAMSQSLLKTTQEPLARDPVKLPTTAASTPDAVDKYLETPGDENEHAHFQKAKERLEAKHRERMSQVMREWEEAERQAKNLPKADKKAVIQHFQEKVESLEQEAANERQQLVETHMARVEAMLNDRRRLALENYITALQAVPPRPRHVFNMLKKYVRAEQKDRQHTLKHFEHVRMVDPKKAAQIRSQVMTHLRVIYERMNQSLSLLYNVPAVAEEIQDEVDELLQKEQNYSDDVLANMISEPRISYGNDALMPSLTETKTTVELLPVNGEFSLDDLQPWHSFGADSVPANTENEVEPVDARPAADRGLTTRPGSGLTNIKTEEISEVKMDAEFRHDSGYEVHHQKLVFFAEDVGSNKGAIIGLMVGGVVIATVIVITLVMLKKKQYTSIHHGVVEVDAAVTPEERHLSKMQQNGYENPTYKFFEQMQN
T2 sequence (P06276 whole entry): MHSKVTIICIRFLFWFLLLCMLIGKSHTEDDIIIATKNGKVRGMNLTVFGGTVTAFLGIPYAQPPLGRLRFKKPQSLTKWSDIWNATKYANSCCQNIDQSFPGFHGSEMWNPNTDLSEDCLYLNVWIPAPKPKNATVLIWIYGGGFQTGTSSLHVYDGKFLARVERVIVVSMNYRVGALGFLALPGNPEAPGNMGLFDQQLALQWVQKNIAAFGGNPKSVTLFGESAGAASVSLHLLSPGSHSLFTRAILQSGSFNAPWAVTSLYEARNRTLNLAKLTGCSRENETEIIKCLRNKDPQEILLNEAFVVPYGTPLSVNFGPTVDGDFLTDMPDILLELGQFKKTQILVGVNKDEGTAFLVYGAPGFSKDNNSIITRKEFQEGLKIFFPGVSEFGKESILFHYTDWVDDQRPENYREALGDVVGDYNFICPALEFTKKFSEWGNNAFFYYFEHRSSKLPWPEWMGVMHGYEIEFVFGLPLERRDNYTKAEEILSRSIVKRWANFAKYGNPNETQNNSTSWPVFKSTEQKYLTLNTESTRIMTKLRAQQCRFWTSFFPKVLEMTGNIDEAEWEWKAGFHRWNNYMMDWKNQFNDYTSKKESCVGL
T1 sequence (P81908 whole entry): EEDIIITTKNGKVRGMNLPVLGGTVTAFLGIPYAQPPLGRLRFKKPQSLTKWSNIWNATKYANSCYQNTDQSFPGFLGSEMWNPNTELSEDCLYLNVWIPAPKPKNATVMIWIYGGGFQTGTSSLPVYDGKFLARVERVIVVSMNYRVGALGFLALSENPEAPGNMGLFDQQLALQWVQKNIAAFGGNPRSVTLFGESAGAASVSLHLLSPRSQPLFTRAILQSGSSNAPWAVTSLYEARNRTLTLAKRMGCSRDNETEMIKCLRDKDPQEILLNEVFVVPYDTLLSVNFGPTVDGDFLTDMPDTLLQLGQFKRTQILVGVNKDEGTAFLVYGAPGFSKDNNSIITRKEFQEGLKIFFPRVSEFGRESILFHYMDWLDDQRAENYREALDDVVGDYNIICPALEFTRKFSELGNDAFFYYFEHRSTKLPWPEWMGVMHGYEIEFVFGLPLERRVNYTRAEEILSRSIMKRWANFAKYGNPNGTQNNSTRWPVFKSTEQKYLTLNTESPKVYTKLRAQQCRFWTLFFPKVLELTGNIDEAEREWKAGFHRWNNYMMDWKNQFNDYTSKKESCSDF
Sequence of Acetylcholinesterase (Homo sapiens) (P22303 whole entry): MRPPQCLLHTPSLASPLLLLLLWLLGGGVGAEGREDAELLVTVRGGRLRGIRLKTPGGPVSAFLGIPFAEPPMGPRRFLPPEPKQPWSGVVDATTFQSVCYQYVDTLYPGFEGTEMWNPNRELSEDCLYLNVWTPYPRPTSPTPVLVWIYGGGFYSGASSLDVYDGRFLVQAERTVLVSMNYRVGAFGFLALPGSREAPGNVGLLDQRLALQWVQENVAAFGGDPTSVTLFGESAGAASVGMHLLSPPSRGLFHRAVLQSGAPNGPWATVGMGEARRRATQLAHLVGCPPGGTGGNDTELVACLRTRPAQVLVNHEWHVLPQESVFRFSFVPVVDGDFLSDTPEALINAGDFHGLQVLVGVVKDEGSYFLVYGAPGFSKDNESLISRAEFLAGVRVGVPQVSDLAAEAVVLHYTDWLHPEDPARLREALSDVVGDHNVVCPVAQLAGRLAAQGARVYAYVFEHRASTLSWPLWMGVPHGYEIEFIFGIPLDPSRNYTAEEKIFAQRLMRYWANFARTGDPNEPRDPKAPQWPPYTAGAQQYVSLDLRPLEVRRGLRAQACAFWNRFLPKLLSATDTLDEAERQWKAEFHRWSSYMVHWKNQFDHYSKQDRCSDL
Sequence of Albumin (P02768 whole entry): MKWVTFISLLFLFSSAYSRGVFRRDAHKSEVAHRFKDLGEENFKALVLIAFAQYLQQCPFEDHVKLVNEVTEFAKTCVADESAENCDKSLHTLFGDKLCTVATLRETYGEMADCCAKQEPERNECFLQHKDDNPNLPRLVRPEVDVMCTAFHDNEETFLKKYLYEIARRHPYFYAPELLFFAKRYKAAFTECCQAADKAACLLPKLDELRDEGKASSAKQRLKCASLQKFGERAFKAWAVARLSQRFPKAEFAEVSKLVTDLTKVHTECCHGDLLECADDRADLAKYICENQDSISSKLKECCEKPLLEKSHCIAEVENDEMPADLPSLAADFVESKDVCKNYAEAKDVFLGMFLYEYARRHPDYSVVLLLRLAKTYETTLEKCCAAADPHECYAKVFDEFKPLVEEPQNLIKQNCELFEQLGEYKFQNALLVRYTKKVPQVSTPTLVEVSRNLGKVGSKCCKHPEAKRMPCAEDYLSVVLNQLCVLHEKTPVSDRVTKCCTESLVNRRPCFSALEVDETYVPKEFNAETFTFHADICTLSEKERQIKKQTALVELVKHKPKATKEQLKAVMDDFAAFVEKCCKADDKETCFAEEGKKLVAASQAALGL
T3 sequence (P02768 whole entry): as above
Sequence of Acetylcholinesterase (Electrophorus electricus) (O42275 24-633 limits assumed): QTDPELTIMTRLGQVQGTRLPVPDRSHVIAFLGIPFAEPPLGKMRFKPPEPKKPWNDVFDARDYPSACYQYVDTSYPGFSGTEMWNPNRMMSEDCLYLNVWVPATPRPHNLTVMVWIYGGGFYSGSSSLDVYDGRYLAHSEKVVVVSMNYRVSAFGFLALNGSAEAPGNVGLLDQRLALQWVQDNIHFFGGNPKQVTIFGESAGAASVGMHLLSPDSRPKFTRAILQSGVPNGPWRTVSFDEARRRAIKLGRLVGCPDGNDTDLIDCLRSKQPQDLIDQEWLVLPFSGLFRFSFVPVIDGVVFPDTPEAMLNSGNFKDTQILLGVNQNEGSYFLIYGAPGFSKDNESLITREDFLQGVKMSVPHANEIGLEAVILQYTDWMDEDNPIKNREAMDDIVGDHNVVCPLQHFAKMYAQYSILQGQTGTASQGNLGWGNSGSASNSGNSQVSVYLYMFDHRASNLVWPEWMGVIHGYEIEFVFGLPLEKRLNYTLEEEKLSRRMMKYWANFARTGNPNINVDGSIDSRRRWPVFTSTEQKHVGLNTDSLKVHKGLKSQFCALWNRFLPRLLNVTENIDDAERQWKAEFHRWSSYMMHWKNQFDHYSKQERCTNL
Sequence of Acetylcholinesterase (O42275 whole entry): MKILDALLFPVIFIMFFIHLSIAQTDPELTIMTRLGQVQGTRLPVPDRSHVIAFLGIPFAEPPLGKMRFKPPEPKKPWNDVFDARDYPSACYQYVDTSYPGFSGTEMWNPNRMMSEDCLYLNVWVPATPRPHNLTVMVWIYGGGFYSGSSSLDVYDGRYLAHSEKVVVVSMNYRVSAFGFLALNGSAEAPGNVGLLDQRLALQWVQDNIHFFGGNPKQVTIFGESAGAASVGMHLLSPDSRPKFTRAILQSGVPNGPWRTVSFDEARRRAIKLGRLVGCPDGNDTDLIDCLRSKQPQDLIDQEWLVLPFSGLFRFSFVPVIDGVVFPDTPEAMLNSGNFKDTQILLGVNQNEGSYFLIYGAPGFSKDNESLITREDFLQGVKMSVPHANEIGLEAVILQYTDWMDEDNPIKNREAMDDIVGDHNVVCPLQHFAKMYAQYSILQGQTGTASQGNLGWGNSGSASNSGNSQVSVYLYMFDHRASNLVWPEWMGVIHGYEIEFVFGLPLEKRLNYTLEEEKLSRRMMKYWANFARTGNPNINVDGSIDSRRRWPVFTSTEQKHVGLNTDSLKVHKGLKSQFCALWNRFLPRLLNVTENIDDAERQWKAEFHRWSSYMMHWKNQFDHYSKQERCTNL
Sequence of Cholinesterase (Equus caballus) (P81908 whole entry): as the sequence (P81908 whole entry) above

Q: Which results are given for O=C1NCCCc2c1c1ccccc1n2CCCCCCCN1CCN(c2ccccn2)CC1?
A: IC50 (Cholinesterase [1]): 2100 nM; IC50 (Acetylcholinesterase): 9100 nM

Q: Which IC50 (Cholinesterase [1]) does the source give for O=C1NCCCc2c1c1ccccc1n2CCCCCCCN1CCN(c2ccc(F)cc2)CC1 here?
A: 10000 nM

Q: What about the inhibition [2] of the same compound?
A: 10%

Q: Which IC50 (Cholinesterase [1]) does the source give for O=C1NCCCc2c1c1ccccc1n2CCN1CCN(CCc2ccccc2)CC1 here?
A: 5790 nM

Q: And the inhibition [2]?
A: 8%

Q: What about the inhibition [3] of the same compound?
A: 55%

Q: Which results are given for O=C1NCCCc2c1c1ccccc1n2CCCCCCCN1CCN(Cc2ccncc2)CC1?
A: IC50 (Cholinesterase [1]): 1860 nM; IC50 (Acetylcholinesterase): 7060 nM

Q: For O=C1NCCCc2c1c1ccccc1n2CCCCCCCN1CCN(Cc2ccccc2)CC1, which IC50 (Cholinesterase [1]) is on record?
A: 396 nM

Q: What about the IC50 (Acetylcholinesterase) of the same compound?
A: 402 nM

Q: With O=C1NCCCc2c1c1ccccc1n2CCCCCCCN1CCN(CCc2ccccc2)CC1 as the compound, how does the IC50 (Cholinesterase [1]) read?
A: 65 nM

Q: What about the IC50 (Cholinesterase [4]) of the same compound?
A: 72 nM

Q: And the Kd (Cholinesterase [5])?
A: 62 nM

Q: What about the Activity (SH-SY5Y [6]) of the same compound?
A: inactive

Q: And the koff (serum albumin [7])?
A: 0.151 s⁻¹

Q: What about the solubility at 1 h [8] of the same compound?
A: 6.1 µg/mL (≈ 12.5 µM)

Q: And the inhibition [9]?
A: 39%

Q: What about the Activity [10] of the same compound?
A: < 10%

Q: What about the Activity (SH-SY5Y [11]) of the same compound?
A: Active

Q: What about the IC50 (Acetylcholinesterase) of the same compound?
A: 5900 nM

Q: And the inhibition [12]?
A: Active

Q: And the IC50 at 24 h [13]?
A: 60000 nM

Q: And the selectivity ratio (equine serum BuChE)?
A: 800

Q: And the Activity (SH-SY5Y [14])?
A: inactive

Q: And the residence time (serum albumin [15])?
A: 0.1 min

Q: What about the inhibition [3] of the same compound?
A: 62%

Q: And the Kd (Albumin)?
A: 3530 nM

Q: And the Ki (Cholinesterase [16])?
A: 27 nM

Q: Which IC50 (Cholinesterase [1]) does the source give for O=C1NCCCc2c1c1ccccc1n2CCCCCN1CCN(c2ccc(F)cc2)CC1 here?
A: 1780 nM

Q: And the inhibition [2]?
A: 28%

Q: Which IC50 (Cholinesterase [1]) does the source give for O=C1NCCCc2c1c1ccccc1n2CCCCCN1CCN(c2ccccc2)CC1 here?
A: 5520 nM

Q: What about the inhibition [2] of the same compound?
A: 31%

Q: Which IC50 (Cholinesterase [1]) does the source give for O=C1NCCCc2c1c1ccccc1n2CCCCCN1CCN(Cc2ccncc2)CC1 here?
A: 1920 nM

Q: What about the inhibition [2] of the same compound?
A: 2%

Q: What does the source list for O=C1NCCCc2c1c1ccccc1n2CCCCCN1CCN(c2ccccn2)CC1?
A: IC50 (Cholinesterase [1]): 717 nM; inhibition [2]: 13%

Q: What does the source list for CC(C)NCCCn1c2c(c3ccccc31)C(=O)NCCC2?
A: inhibition [17]: 50%; inhibition [18]: < 40%; inhibition (Cholinesterase [19]): < 40%

Q: With O=C1NCCCc2c1c1ccccc1n2CCCCCN1CCN(c2ccccc2F)CC1 as the compound, how does the IC50 (Cholinesterase [1]) read?
A: 1000 nM

Q: And the inhibition [2]?
A: 35%

Q: What does the source list for CN1CCN(CCCCCn2c3c(c4ccccc42)C(=O)NCCC3)CC1?
A: inhibition [2]: 20%; inhibition [20]: 20%

Q: Which IC50 (Cholinesterase [1]) does the source give for O=C1NCCCc2c1c1ccccc1n2CCCCCCCN1CCN(Cc2cccnc2)CC1 here?
A: 466 nM

Q: And the inhibition [2]?
A: 40%

Q: Which IC50 (Cholinesterase [1]) does the source give for O=C1NCCCc2c1c1ccccc1n2CCCCN1CCN(Cc2ccccc2)CC1 here?
A: 2640 nM

Q: What about the IC50 (Acetylcholinesterase) of the same compound?
A: 1480 nM

Q: For CN1CCN(CCCCCCCn2c3c(c4ccccc42)C(=O)NCCC3)CC1, which IC50 (Cholinesterase [1]) is on record?
A: 10000 nM

Q: What about the IC50 (Acetylcholinesterase) of the same compound?
A: 15000 nM

Q: With O=c1c(O)c(-c2ccc(O)c(O)c2)oc2cc(O)cc(O)c12 as the compound, how does the Activity (SH-SY5Y [21]) read?
A: Active

Q: Which IC50 (Cholinesterase [1]) does the source give for O=C1NCCCc2c1c1ccccc1n2CCCCCN1CCN(Cc2ccccc2)CC1 here?
A: 430 nM

Q: What about the IC50 (Acetylcholinesterase) of the same compound?
A: 1830 nM

Q: And the inhibition [3]?
A: 28%

Q: Which IC50 (Cholinesterase [1]) does the source give for O=C1NCCCc2c1c1ccccc1n2CCCCCN1CCN(CCc2ccccc2)CC1 here?
A: 163 nM

Q: And the IC50 (Cholinesterase [4])?
A: 190 nM

Q: And the inhibition [2]?
A: 39%

Q: And the Kd (Cholinesterase [5])?
A: 148 nM

Q: What about the Activity (SH-SY5Y [6]) of the same compound?
A: inactive

Q: What about the koff (serum albumin [7]) of the same compound?
A: 0.092 s⁻¹

Q: And the solubility at 1 h [8]?
A: 169 µg/mL (≈ 368 µM)

Q: What about the EC50 (SH-SY5Y [22]) of the same compound?
A: ~1500 nM

Q: What about the Activity (SH-SY5Y [22]; dose 1-20 µM) of the same compound?
A: Dose-Dependent Effect

Q: And the inhibition [9]?
A: 20%

Q: What about the Activity [10] of the same compound?
A: < 10%

Q: And the Activity (SH-SY5Y [11])?
A: Active

Q: And the IC50 at 24 h [13]?
A: 88000 nM

Q: What about the selectivity ratio (equine serum BuChE) of the same compound?
A: 500

Q: What about the residence time (serum albumin [15]) of the same compound?
A: 0.183 min

Q: What about the inhibition [3] of the same compound?
A: 14%

Q: And the Kd (Albumin)?
A: 6700 nM

Q: For O=C1NCCCc2c1c1ccccc1n2CCCCCCCN1CCN(c2ccccc2)CC1, which IC50 (Cholinesterase [1]) is on record?
A: 765 nM

Q: And the inhibition [2]?
A: 17%

Q: What about the Kd (Cholinesterase [5]) of the same compound?
A: 759 nM

Q: And the koff (serum albumin [7])?
A: 0.069 s⁻¹

Q: And the residence time (serum albumin [15])?
A: 0.25 min

Q: And the Kd (Albumin)?
A: 1640 nM

Q: With O=C1NCCCc2c1c1ccccc1n2CCCCCCCN1CCN(c2ccccc2F)CC1 as the compound, how does the IC50 (Cholinesterase [1]) read?
A: 906 nM

Q: And the IC50 (Acetylcholinesterase)?
A: 4940 nM

Q: What does the source list for O=C1NCCCc2c1c1ccccc1n2CCc1ccccc1?
A: koff (serum albumin [7]): 0.017 s⁻¹; inhibition [17]: < 40%; residence time (serum albumin [15]): 1 min; Kd (Albumin): 850 nM

Q: For O=C1NCCCc2c1c1ccccc1n2CCCCCN1CCN(Cc2cccnc2)CC1, which IC50 (Cholinesterase [1]) is on record?
A: 4920 nM

Q: What about the inhibition [2] of the same compound?
A: 37%

Q: For O=C1NCCCc2c1c1ccccc1n2CCCCN1CCN(CCc2ccccc2)CC1, which IC50 (Cholinesterase [1]) is on record?
A: 528 nM

Q: What about the inhibition [2] of the same compound?
A: 36%

Q: And the inhibition [3]?
A: 21%

Q: Which results are given for O=C1NCCCc2c1c1ccccc1n2CCN1CCN(Cc2ccccc2)CC1?
A: IC50 (Cholinesterase [1]): 6590 nM; IC50 (Acetylcholinesterase): 6570 nM; inhibition [3]: 13%
